Patent US20090104278A1, “FOOD COMPOSITION FOR RECOVERY FROM FATIGUE” (Ajinomoto Co., Inc., priority 2002, published 2009)

System: CDF1 male mice
Assay: Spontaneous activity for 60 minutes after 3 hours forced walking exercise (treadmill), infrared sensor
Format: in vivo
Details: oral, Bonito Extract A 1 g/kg in terms of a free amino acid amount, known components of Bonito Extract A, vs Control group
Procedure: Three groups (A, B and C groups) of 5-week-old CDF1 male mice, each group consisting of 8 mice (n=8 for each group), were put in a treadmill and subjected to forced walking exercise for 3 hours. Then, the mice of the respective groups were orally administrated, using a gastric sonde, with (1) Bonito Extract A, (2) Bonito Extract B, and (3) Bonito Extract C in an amount of 1 g/kg in terms of free amino acid amount in the bonito extracts. Subsequently, their spontaneous activity for 60 minutes was measured using a spontaneous activity measuring apparatus provided with an infrared sensor, and comparison with the control group (Control group which was administrated with only deionized distilled water in the same manner as the samples) was carried out. The respective samples and the distilled water were administered in amounts of 0.5 mL. The result is represented in FIG. 1.
In the Figure, *, ** and *** represent significant differences from the control group, * being at p<0.05, ** being at p<0.01, and *** being at p<0.001. “Total counts” refers to the number of times of exercising that were measured with the infrared sensor for 60 minutes.
Three groups of 5-week-old CDF1 male mice, each group consisting of 8 mice (n=8 for each group), were put in a treadmill and subjected to forced walking exercise for 3 hours. […]

Molecule	recovery of spontaneous activity (Test Example 6, FIGS. 8, 9 and 10)
[Cl-].[Na+] [NaCl]	recovery of spontaneous activity was not observed
inosine 1-phosphate [nucleic acid]	recovery of spontaneous activity was not observed
